{
  "source": "the supplement of paper PMC9780213",
  "conditions_in_all_cases": "treatment time: 24 h",
  "key": {"U2OS-mOrange2-Peroxisome": {"system": "U2OS-mOrange2-Peroxisome", "test": "cell count relative to DMSO control (panel B, lysosome/peroxisome/lipid stain) (fraction of control); higher = more cells (less toxicity)", "protocol": "(§1)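 U2OS-derived cells in 384-well plates were treated for 24 h with a 7-point 2-fold dilution series (top dose 20 µM for most compounds; final max DMSO 1%), then fixed, stained in four marker panels and imaged on a Cellomics ArrayScan. Cell count per treatment (three replicate plates merged) is given as a fraction of DMSO control. Panel A used parental U2OS, panel B U2OS-mOrange2-Peroxisome, panel C1 U2OS-LMNB1-TUBA1B-ACTB (DRAQ5 nuclei).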"}, "U2OS-LMNB1-TUBA1B-ACTB": {"system": "U2OS-LMNB1-TUBA1B-ACTB", "test": "cell count relative to DMSO control (panel C1, DRAQ5/ER stain) (fraction of control); higher = more cells (less toxicity)", "protocol": "as §1"}, "U2OS": {"system": "U2OS", "test": "cell count relative to DMSO control (panel A, nuclei/RNA/PMG/mitochondria stain) (fraction of control); higher = more cells (less toxicity)", "protocol": "as §1"}},
  "data": [
    {"smiles": "O=C(/C=C/c1cccc(S(=O)(=O)Nc2ccccc2)c1)NO", "note": "[belinostat]", "values": [
      {"measurement": "cell count", "setting": "U2OS-mOrange2-Peroxisome; 0.3125 µM", "value": 0.814},
      {"measurement": "cell count", "setting": "U2OS-mOrange2-Peroxisome; 0.625 µM", "value": 0.805},
      {"measurement": "cell count", "setting": "U2OS-mOrange2-Peroxisome; 1.25 µM", "value": 1.05},
      {"measurement": "cell count", "setting": "U2OS-mOrange2-Peroxisome; 2.5 µM", "value": 1.14},
      {"measurement": "cell count", "setting": "U2OS-mOrange2-Peroxisome; 5 µM", "value": 1.19},
      {"measurement": "cell count", "setting": "U2OS-mOrange2-Peroxisome; 10 µM", "value": 1.18},
      {"measurement": "cell count", "setting": "U2OS-mOrange2-Peroxisome; 20 µM", "value": 0.581},
      {"measurement": "cell count", "setting": "U2OS-LMNB1-TUBA1B-ACTB; 0.3125 µM", "value": 1.04},
      {"measurement": "cell count", "setting": "U2OS-LMNB1-TUBA1B-ACTB; 0.625 µM", "value": 1.04},
      {"measurement": "cell count", "setting": "U2OS-LMNB1-TUBA1B-ACTB; 1.25 µM", "value": 1.02},
      {"measurement": "cell count", "setting": "U2OS-LMNB1-TUBA1B-ACTB; 2.5 µM", "value": 0.99},
      {"measurement": "cell count", "setting": "U2OS-LMNB1-TUBA1B-ACTB; 5 µM", "value": 1.09},
      {"measurement": "cell count", "setting": "U2OS-LMNB1-TUBA1B-ACTB; 10 µM", "value": 0.701},
      {"measurement": "cell count", "setting": "U2OS-LMNB1-TUBA1B-ACTB; 20 µM", "value": 0.397},
      {"measurement": "cell count", "setting": "U2OS; 0.3125 µM", "value": 1.07},
      {"measurement": "cell count", "setting": "U2OS; 0.625 µM", "value": 1.03},
      {"measurement": "cell count", "setting": "U2OS; 1.25 µM", "value": 1.1},
      {"measurement": "cell count", "setting": "U2OS; 2.5 µM", "value": 1.07},
      {"measurement": "cell count", "setting": "U2OS; 5 µM", "value": 1.04},
      {"measurement": "cell count", "setting": "U2OS; 10 µM", "value": 0.557},
      {"measurement": "cell count", "setting": "U2OS; 20 µM", "value": 0.351}
    ]},
    {"smiles": "N#CC(C#N)=NNc1ccc(OC(F)(F)F)cc1", "note": "[FCCP]", "values": [
      {"measurement": "cell count", "setting": "U2OS-mOrange2-Peroxisome; 0.3125 µM", "value": 0.804},
      {"measurement": "cell count", "setting": "U2OS-mOrange2-Peroxisome; 0.625 µM", "value": 0.769},
      {"measurement": "cell count", "setting": "U2OS-mOrange2-Peroxisome; 1.25 µM", "value": 0.715},
      {"measurement": "cell count", "setting": "U2OS-mOrange2-Peroxisome; 2.5 µM", "value": 0.625},
      {"measurement": "cell count", "setting": "U2OS-mOrange2-Peroxisome; 5 µM", "value": 0.802},
      {"measurement": "cell count", "setting": "U2OS-mOrange2-Peroxisome; 10 µM", "value": 0.659},
      {"measurement": "cell count", "setting": "U2OS-mOrange2-Peroxisome; 20 µM", "value": 0.618},
      {"measurement": "cell count", "setting": "U2OS-LMNB1-TUBA1B-ACTB; 0.3125 µM", "value": 1.11},
      {"measurement": "cell count", "setting": "U2OS-LMNB1-TUBA1B-ACTB; 0.625 µM", "value": 1.13},
      {"measurement": "cell count", "setting": "U2OS-LMNB1-TUBA1B-ACTB; 1.25 µM", "value": 1.01},
      {"measurement": "cell count", "setting": "U2OS-LMNB1-TUBA1B-ACTB; 2.5 µM", "value": 1.05},
      {"measurement": "cell count", "setting": "U2OS-LMNB1-TUBA1B-ACTB; 5 µM", "value": 0.894},
      {"measurement": "cell count", "setting": "U2OS-LMNB1-TUBA1B-ACTB; 10 µM", "value": 0.666},
      {"measurement": "cell count", "setting": "U2OS-LMNB1-TUBA1B-ACTB; 20 µM", "value": 0.651},
      {"measurement": "cell count", "setting": "U2OS; 0.3125 µM", "value": 0.961},
      {"measurement": "cell count", "setting": "U2OS; 0.625 µM", "value": 0.945},
      {"measurement": "cell count", "setting": "U2OS; 1.25 µM", "value": 0.883},
      {"measurement": "cell count", "setting": "U2OS; 2.5 µM", "value": 0.867},
      {"measurement": "cell count", "setting": "U2OS; 5 µM", "value": 0.897},
      {"measurement": "cell count", "setting": "U2OS; 10 µM", "value": 0.622},
      {"measurement": "cell count", "setting": "U2OS; 20 µM", "value": 0.704}
    ]},
    {"smiles": "CC(C)n1c(/C=C/C(O)CC(O)CC(=O)O)c(-c2ccc(F)cc2)c2ccccc21", "note": "(centres undefined) [fluvastatin]", "values": [
      {"measurement": "cell count", "setting": "U2OS-mOrange2-Peroxisome; 0.3125 µM", "value": 0.991},
      {"measurement": "cell count", "setting": "U2OS-mOrange2-Peroxisome; 0.625 µM", "value": 0.839},
      {"measurement": "cell count", "setting": "U2OS-mOrange2-Peroxisome; 1.25 µM", "value": 0.835},
      {"measurement": "cell count", "setting": "U2OS-mOrange2-Peroxisome; 2.5 µM", "value": 0.93},
      {"measurement": "cell count", "setting": "U2OS-mOrange2-Peroxisome; 5 µM", "value": 0.815},
      {"measurement": "cell count", "setting": "U2OS-mOrange2-Peroxisome; 10 µM", "value": 0.872},
      {"measurement": "cell count", "setting": "U2OS-mOrange2-Peroxisome; 20 µM", "value": 0.22},
      {"measurement": "cell count", "setting": "U2OS-LMNB1-TUBA1B-ACTB; 0.3125 µM", "value": 1.01},
      {"measurement": "cell count", "setting": "U2OS-LMNB1-TUBA1B-ACTB; 0.625 µM", "value": 0.939},
      {"measurement": "cell count", "setting": "U2OS-LMNB1-TUBA1B-ACTB; 1.25 µM", "value": 0.943},
      {"measurement": "cell count", "setting": "U2OS-LMNB1-TUBA1B-ACTB; 2.5 µM", "value": 0.931},
      {"measurement": "cell count", "setting": "U2OS-LMNB1-TUBA1B-ACTB; 5 µM", "value": 0.899},
      {"measurement": "cell count", "setting": "U2OS-LMNB1-TUBA1B-ACTB; 10 µM", "value": 0.892},
      {"measurement": "cell count", "setting": "U2OS-LMNB1-TUBA1B-ACTB; 20 µM", "value": 0.849},
      {"measurement": "cell count", "setting": "U2OS; 0.3125 µM", "value": 0.901},
      {"measurement": "cell count", "setting": "U2OS; 0.625 µM", "value": 0.848},
      {"measurement": "cell count", "setting": "U2OS; 1.25 µM", "value": 0.867},
      {"measurement": "cell count", "setting": "U2OS; 2.5 µM", "value": 0.777},
      {"measurement": "cell count", "setting": "U2OS; 5 µM", "value": 0.826},
      {"measurement": "cell count", "setting": "U2OS; 10 µM", "value": 0.702},
      {"measurement": "cell count", "setting": "U2OS; 20 µM", "value": 0.441}
    ]},
    {"smiles": "Cc1[nH]c2ccccc2c1CCNC(=O)c1cccs1", "note": "[CK-636]", "values": [
      {"measurement": "cell count", "setting": "U2OS-mOrange2-Peroxisome; 0.3125 µM", "value": 0.793},
      {"measurement": "cell count", "setting": "U2OS-mOrange2-Peroxisome; 0.625 µM", "value": 0.764},
      {"measurement": "cell count", "setting": "U2OS-mOrange2-Peroxisome; 1.25 µM", "value": 0.737},
      {"measurement": "cell count", "setting": "U2OS-mOrange2-Peroxisome; 2.5 µM", "value": 0.756},
      {"measurement": "cell count", "setting": "U2OS-mOrange2-Peroxisome; 5 µM", "value": 0.783},
      {"measurement": "cell count", "setting": "U2OS-mOrange2-Peroxisome; 10 µM", "value": 1.04},
      {"measurement": "cell count", "setting": "U2OS-mOrange2-Peroxisome; 20 µM", "value": 0.977},
      {"measurement": "cell count", "setting": "U2OS-LMNB1-TUBA1B-ACTB; 0.3125 µM", "value": 1.16},
      {"measurement": "cell count", "setting": "U2OS-LMNB1-TUBA1B-ACTB; 0.625 µM", "value": 1.06},
      {"measurement": "cell count", "setting": "U2OS-LMNB1-TUBA1B-ACTB; 1.25 µM", "value": 1.09},
      {"measurement": "cell count", "setting": "U2OS-LMNB1-TUBA1B-ACTB; 2.5 µM", "value": 1.04},
      {"measurement": "cell count", "setting": "U2OS-LMNB1-TUBA1B-ACTB; 5 µM", "value": 0.908},
      {"measurement": "cell count", "setting": "U2OS-LMNB1-TUBA1B-ACTB; 10 µM", "value": 0.887},
      {"measurement": "cell count", "setting": "U2OS-LMNB1-TUBA1B-ACTB; 20 µM", "value": 0.858},
      {"measurement": "cell count", "setting": "U2OS; 0.3125 µM", "value": 1.06},
      {"measurement": "cell count", "setting": "U2OS; 0.625 µM", "value": 0.971},
      {"measurement": "cell count", "setting": "U2OS; 1.25 µM", "value": 1.01},
      {"measurement": "cell count", "setting": "U2OS; 2.5 µM", "value": 1.01},
      {"measurement": "cell count", "setting": "U2OS; 5 µM", "value": 0.977},
      {"measurement": "cell count", "setting": "U2OS; 10 µM", "value": 0.961},
      {"measurement": "cell count", "setting": "U2OS; 20 µM", "value": 0.865}
    ]}
  ]
}
